This experiment relates to BDF1 mice, P388 leukemia ip, median survival T/C. Kind of experiment: NCI In Vivo Anticancer Drug Screen. Data for tumor model P388 Leukemia (intraperitoneal) in B6D2F1 (BDF1) mice. To be noted: endpoint: median survival time, higher = longer survival. In outline:
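Mice carrying the transplantable tumour receive compound or vehicle. Survival is followed in each arm, and the treated measure is divided by the vehicle measure.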

Setting [1] is: dose: 50.0 mg/kg/injection, schedule: Q04DX003 (ip), vehicle: Klucel (hydroxypropylcellulose) (HPC).
Where [2] appears, read: dose: 100.0 mg/kg/injection, schedule: Q04DX003 (ip), vehicle: Klucel (hydroxypropylcellulose) (HPC).
[3] abbreviates: dose: 25.0 mg/kg/injection, schedule: Q01DX009 (ip), vehicle: saline with Tween-80.
Where [4] appears, read: dose: 50.0 mg/kg/injection, schedule: Q01DX009 (ip), vehicle: saline with Tween-80.
Where [5] appears, read: dose: 100.0 mg/kg/injection, schedule: Q01DX009 (ip), vehicle: saline with Tween-80.
The mark [6] stands for this setting: dose: 100.0 mg/kg/injection, schedule: Q01DX001 (ip), vehicle: saline with Tween-80.
[7] abbreviates: dose: 100.0 mg/kg/injection, schedule: Q04DX003 (ip), vehicle: saline with Tween-80.
[8] abbreviates: dose: 200.0 mg/kg/injection, schedule: Q01DX001 (ip), vehicle: saline with Tween-80.
[9] abbreviates: dose: 400.0 mg/kg/injection, schedule: Q01DX001 (ip), vehicle: saline with Tween-80.

Where “and” joins values, the source holds several entries; their conditions need not be identical. Equal entries are not always repeated. Inconclusive results and toxic doses are left out.

`OC1(C2(O)c3ccccc3Oc3ccccc32)c2ccccc2Oc2ccccc21`: the T/C is, setting by setting: (dose: 50.0 mg/kg/injection, schedule: Q01DX001 (ip), vehicle: saline) 95 % of control; (dose: 100.0 mg/kg/injection, schedule: Q01DX001 (ip), vehicle: saline) 90 % of control; (dose: 200.0 mg/kg/injection, schedule: Q01DX001 (ip), vehicle: saline) 90 % of control.
Take `CCN1c2ccccc2C(Cl)(c2ccc(N(C)C)cc2)c2ccccc21`: the T/C is 118 % of control (dose: 3.75 mg/kg/injection, schedule: Q01DX009 (ip), vehicle: saline); 100 % of control (dose: 6.25 mg/kg/injection, schedule: Q04DX003 (ip), vehicle: saline); 118 % of control (dose: 7.5 mg/kg/injection, schedule: Q01DX009 (ip), vehicle: saline); 116 % of control (dose: 12.5 mg/kg/injection, schedule: Q04DX003 (ip), vehicle: saline); 116 % of control (dose: 25.0 mg/kg/injection, schedule: Q04DX003 (ip), vehicle: saline).
Turning to `O=C(NNc1ccccc1)c1ccccc1`, the T/C (dose: 50.0 mg/kg/injection, schedule: Q01DX009 (ip), vehicle: Klucel (hydroxypropylcellulose) (HPC)) is 105 % of control; the T/C under setting [1] was 109 % of control; the T/C (dose: 100.0 mg/kg/injection, schedule: Q01DX009 (ip), vehicle: Klucel (hydroxypropylcellulose) (HPC)) is 105 % of control; the T/C under setting [2] is 104 % of control; the T/C (dose: 200.0 mg/kg/injection, schedule: Q01DX009 (ip), vehicle: Klucel (hydroxypropylcellulose) (HPC)) was 120 % of control; the T/C (dose: 200.0 mg/kg/injection, schedule: Q04DX003 (ip), vehicle: Klucel (hydroxypropylcellulose) (HPC)) was 100 % of control.
In the case of `O=C(O)C1=NNC(C(=O)O)=NN1`, the T/C (dose: 50.0 mg/kg/injection, schedule: Q01DX009 (ip), vehicle: saline) was 98 % of control; the T/C (dose: 100.0 mg/kg/injection, schedule: Q01DX009 (ip), vehicle: saline) is 100 % of control; the T/C (dose: 200.0 mg/kg/injection, schedule: Q01DX009 (ip), vehicle: saline) is 98 % of control.
Take `Nc1ccc(OCCCc2c(-c3ccccc3)nc(N)[nH]c2=O)cc1`: the T/C reads like this: under setting [3], 100 % of control; under setting [4], 99 % of control; under setting [5], 108 % of control.
Consider `O=[N+]([O-])c1ccc2c(N=Nc3c(O)ccc4ccccc34)c(O)cc(S(=O)(=O)O)c2c1`, for which the T/C by setting is: (dose: 25.0 mg/kg/injection, schedule: Q01DX001 (ip), vehicle: saline with Tween-80) 104 % of control; (dose: 50.0 mg/kg/injection, schedule: Q01DX001 (ip), vehicle: saline with Tween-80) 100 % of control; under setting [6], 100 % of control; under setting [5], 104 % of control; (dose: 400.0 mg/kg/injection, schedule: Q01DX009 (ip), vehicle: saline with Tween-80) 100 % of control.
For the molecule `C=CCOCCC(=O)OCC=C`, the T/C runs as follows: (dose: 12.0 mg/kg/injection, schedule: Q01DX001 (ip), vehicle: Klucel (hydroxypropylcellulose) (HPC)) 104 % of control; (dose: 25.0 mg/kg/injection, schedule: Q01DX001 (ip), vehicle: Klucel (hydroxypropylcellulose) (HPC)) 100 % of control; (dose: 25.0 mg/kg/injection, schedule: Q04DX003 (ip), vehicle: Klucel (hydroxypropylcellulose) (HPC)) 100 % of control; (dose: 50.0 mg/kg/injection, schedule: Q01DX001 (ip), vehicle: Klucel (hydroxypropylcellulose) (HPC)) 86 % of control; under setting [1], 104 % of control; under setting [2], 86 % of control and 100 % of control.
`CN1CC2OC2C2C1N2C#N` (centres undefined): the T/C (dose: 25.0 mg/kg/injection, schedule: Q01DX005 (ip), vehicle: saline) is 97 % of control; the T/C (dose: 50.0 mg/kg/injection, schedule: Q01DX005 (ip), vehicle: saline) is 106 % of control; the T/C (dose: 100.0 mg/kg/injection, schedule: Q01DX005 (ip), vehicle: saline) is 111 % of control; the T/C (dose: 200.0 mg/kg/injection, schedule: Q01DX005 (ip), vehicle: saline) is 115 % of control.
Consider `CNC(=O)OCc1c(COC(=O)NC)c(-c2ccc(F)cc2)n2c1CCC2`, for which the T/C (dose: 1.56 mg/kg/injection, schedule: Q01DX009 (ip), vehicle: Klucel (hydroxypropylcellulose) (HPC)) was 122 % of control.
Consider `CCN(C(=O)c1ccc(C(=O)N(CC)c2ccccc2)cc1)c1ccccc1`, for which the T/C is, setting by setting: under setting [7], 100 % of control; (dose: 200.0 mg/kg/injection, schedule: Q04DX003 (ip), vehicle: saline with Tween-80) 91 % of control.
Turning to `O=CNc1ccccc1Cl`, the T/C by setting is: under setting [6], 112 % of control; under setting [8], 91 % of control; under setting [9], 91 % of control.
Consider `CC(=O)NC(N)=O`, for which the T/C is 100 % of control under setting [6], 100 % of control under setting [8] and 109 % of control under setting [9].
Regarding `CCO/C=C1\SC(=S)N(c2ccccc2C)C1=O`, the T/C runs as follows: (dose: 8.8 mg/kg/injection, schedule: Q04DX003 (ip), vehicle: saline with Tween-80) 100 % of control; (dose: 13.2 mg/kg/injection, schedule: Q04DX003 (ip), vehicle: saline with Tween-80) 104 % of control; (dose: 20.0 mg/kg/injection, schedule: Q04DX003 (ip), vehicle: saline with Tween-80) 100 % of control; (dose: 25.0 mg/kg/injection, schedule: Q01DX009 (ip), vehicle: Klucel (hydroxypropylcellulose) (HPC)) 101 % of control; (dose: 30.0 mg/kg/injection, schedule: Q04DX003 (ip), vehicle: saline with Tween-80) 104 % of control; (dose: 88.0 mg/kg/injection, schedule: Q04DX003 (ip), vehicle: saline with Tween-80) 122 % of control. The T/C (dose: 300.0 mg/kg/injection, schedule: Q04DX003 (ip), vehicle: saline with Tween-80) is 163 % of control.
Turning to `[O-][Cl+3]([O-])([O-])O.[O-][n+]1c2ccccc2nc2ccccc21.[Zn+2]`, the T/C under setting [4] is 123 % of control.
As for `CCOC(=O)C1CNc2ccccc2N1` (centres undefined), the T/C (dose: 7.18 mg/kg/injection, schedule: Q04DX003 (ip), vehicle: Klucel (hydroxypropylcellulose) (HPC)) is 110 % of control; the T/C (dose: 14.37 mg/kg/injection, schedule: Q04DX003 (ip), vehicle: Klucel (hydroxypropylcellulose) (HPC)) is 105 % of control; the T/C (dose: 28.75 mg/kg/injection, schedule: Q01DX001 (ip), vehicle: Klucel (hydroxypropylcellulose) (HPC)) was 91 % of control; the T/C (dose: 28.75 mg/kg/injection, schedule: Q04DX003 (ip), vehicle: Klucel (hydroxypropylcellulose) (HPC)) is 105 % of control; the T/C (dose: 57.5 mg/kg/injection, schedule: Q01DX001 (ip), vehicle: Klucel (hydroxypropylcellulose) (HPC)) is 95 % of control; the T/C (dose: 57.5 mg/kg/injection, schedule: Q04DX003 (ip), vehicle: Klucel (hydroxypropylcellulose) (HPC)) was 109 % of control. The T/C was 105 % of control (dose: 75.0 mg/kg/injection, schedule: Q01DX009 (ip), vehicle: Klucel (hydroxypropylcellulose) (HPC)); 91 % of control (dose: 115.0 mg/kg/injection, schedule: Q01DX001 (ip), vehicle: Klucel (hydroxypropylcellulose) (HPC)); 110 % of control (dose: 115.0 mg/kg/injection, schedule: Q01DX009 (ip), vehicle: Klucel (hydroxypropylcellulose) (HPC)); 95 % of control (dose: 115.0 mg/kg/injection, schedule: Q04DX003 (ip), vehicle: Klucel (hydroxypropylcellulose) (HPC)); 104 % of control (dose: 170.0 mg/kg/injection, schedule: Q01DX001 (ip), vehicle: Klucel (hydroxypropylcellulose) (HPC)).
Take `Clc1nc2nc[nH]c2nc1Cl`: the T/C is, setting by setting: (dose: 12.5 mg/kg/injection, schedule: Q04DX003 (ip), vehicle: saline with Tween-80) 100 % of control; under setting [3], 170 % of control; (dose: 25.0 mg/kg/injection, schedule: Q04DX003 (ip), vehicle: saline with Tween-80) 100 % of control; under setting [4], 95 % of control; (dose: 50.0 mg/kg/injection, schedule: Q04DX003 (ip), vehicle: saline with Tween-80) 90 % of control; under setting [7], 95 % of control.

The values above are taken from PubChem BioAssay AID328 (DTP/NCI, 2004).
